# Test results from publication PMC5646861 (PLoS ONE, 2017).
# B1: SENP2: human deSUMOylation enzyme (protein, UniProt Q9HC62 1-589, looked up)
# Sentrin-specific protease 2: MYRWLVRILGTIFRFCDRSVPPARALLKRRRSDSTLFSTVDTDEIPAKRPRLDCFIHQVKNSLYNAASLFGFPFQLTTKPMVTSACNGTRNVAPSGEVFSNSSSCELTGSGSWNNMLKLGNKSPNGISDYPKIRVTVTRDQPRRVLPSFGFTLNSEGCNRRPGGRRHSKGNPESSLMWKPQEQAVTEMISEESGKGLRRPHCTVEEGVQKEEREKYRKLLERLKESGHGNSVCPVTSNYHSSQRSQMDTLKTKGWGEEQNHGVKTTQFVPKQYRLVETRGPLCSLRSEKRCSKGKITDTETMVGIRFENESRRGYQLEPDLSEEVSARLRLGSGSNGLLRRKVSIIETKEKNCSGKERDRRTDDLLELTEDMEKEISNALGHGPQDEILSSAFKLRITRGDIQTLKNYHWLNDEVINFYMNLLVERNKKQGYPALHVFSTFFYPKLKSGGYQAVKRWTKGVNLFEQEIILVPIHRKVHWSLVVIDLRKKCLKYLDSMGQKGHRICEILLQYLQDESKTKRNSDLNLLEWTHHSMKPHEIPQQLNGSDCGMFTCKYADYISRDKPITFTQHQMPLFRKKMVWEILHQQLL
# Columns and labels:
# SMO-1 [1] = target: T1, SMO-1 (Caenorhabditis elegans, UniProt P55853); assay: NMR titration (15N-HSQC chemical shift perturbation) of SMO-1 with SIM peptides; type: binding; set-up: inferred from pET15b vector with NdeI/BamHI and Ni-NTA purification) (N); made in house; host or cells: E. coli BL21(DE3)
# SMO-1 [2] = target: T1, SMO-1; assay: In vitro SMO-1 conjugation assay with FITC-labelled synthetic peptide substrate (human Aos1/Uba2 E1, human Ubc9 E2); type: biochemical, C. elegans; set-up: inferred from pET15b vector with NdeI/BamHI and Ni-NTA purification) (N); made in house; details: 10mM of peptide, 50 μM SMO-1 or SUMO1, 1 μM E1, 2.5 μM E2, 1 mM ATP, 4°C, 12 hours, 20 mM Tris-Cl pH 8.5, 250 mM NaCl, 5 mM MgCl2, 0.1% v/v Tween 20; SDS-PAGE, FITC fluorescence 519 nm
# Procedure: A synthetic peptide, sequence–[…] with Fluorescein iso-thiocyanate (FITC) label at the N-terminus was used as substrate. […] Reaction was carried out at 4°C for 12 hours. The reaction was started by adding 1 mM ATP. Reaction buffer contained 20 mM Tris-Cl pH 8.5, 250 mM NaCl, 5 mM MgCl2, 0.1% v/v Tween 20. […] Reaction buffer was the same as above. The reaction was carried out at 37°C for 4 hours. All reactions were stopped by adding reducing SDS loading dye. Reaction samples were run on 12% w/v SDS PAGE and analysed by probing FITC fluorescence at 519 nm wavelength (excitation wavelength– 495 nm).
# To assess the ability of SMO-1 to be conjugated and deconjugated to substrates we developed an in vitro assay. […] As a substrate we used a synthetic peptide harbouring two consensus SUMOylation sites found in the IE2 protein (Fig 6A). To facilitate detection of SUMOylated peptide on SDS-PAGE gels we labelled the peptide with Fluorescein iso-thiocyanate (FITC) fluorophore. […] To verify, we carried out an in-vitro reaction with FITC tagged SMO-1.
# (A) Sequence of FITC fluorophore labelled peptide used as substrate in in vitro SUMOylation assays. The lysines competent for SUMOylation are in bigger font and in bold face. All subsequent images were obtained by observing FITC fluorescence at 519 nm unless otherwise mentioned. […] The SDS-PAGE gel is imaged by observing YFP fluorescence. […]
# Target sequence in this assay (P55853 1-90): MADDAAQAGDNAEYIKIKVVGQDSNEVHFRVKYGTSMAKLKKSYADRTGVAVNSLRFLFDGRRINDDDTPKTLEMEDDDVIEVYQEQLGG
# Target sequence in this assay (P63279 whole entry, further chain): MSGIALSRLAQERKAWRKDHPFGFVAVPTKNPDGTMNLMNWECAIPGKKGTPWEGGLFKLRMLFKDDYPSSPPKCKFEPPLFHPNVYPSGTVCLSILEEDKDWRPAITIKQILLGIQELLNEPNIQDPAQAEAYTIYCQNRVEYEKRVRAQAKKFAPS
# [3] = test system: substrate-polySMO-1 conjugates; assay: In vitro SMO-1 deconjugation assay with SENP2 on SMO-1 chains from the peptide; type: biochemical; details: 10μM SENP2 (human), same reaction mix as conjugation, 25°C, 2–3 hours; SDS-PAGE, FITC fluorescence
# Procedure: (§1) Deconjugation Assays were performed by adding 10μM SENP2 to poly-SUMO1/2 and poly-SMO-1 chains in the same reaction mix used for conjugation. Deconjugation reaction was carried out at 25°C for 2–3 hours. Reactions were stopped by adding reducing SDS loading dye. Reaction samples were run on 12% w/v SDS PAGE and analysed by probing FITC fluorescence at 519 nm wavelength (excitation wavelength– 495 nm). SMO-1-YFP was checked for deconjugation in 50mM Tris-Cl pH 7.5 @ 25°C, 150mM NaCl, 1mM DTT reaction buffer. SENP2 was mixed with SMO-1-YFP and incubated at temperatures from 25–37°C for 6 hours. The reaction mix were then run separately on two SDS-PAGE gels for imaging using fluorescence and for staining with Coomassie Brilliant Blue R-250 Dye.
# (§2) DeSUMOylation enzymes can cleave SUMO chains, making the process reversible to enable another level of control over the SUMOylation process.
# SMO-1-YFP = assay: De-conjugation (maturation) assay of SMO-1-YFP with SENP2; type: biochemical, C. elegans; details: 50mM Tris-Cl pH 7.5 @ 25°C, 150mM NaCl, 1mM DTT; 25–37°C, 6 hours; SDS-PAGE, YFP fluorescence and Coomassie
# Procedure: as §1, §2
molecule,measurement,setting,value
CC[C@H](C)[C@H](NC(=O)[C@H](CS)NC(=O)CNC(=O)[C@H](C)NC(=O)[C@@H](NC(=O)[C@@H](N)CC(=O)O)[C@@H](C)O)C(=O)N[C@H](C(=O)N[C@H](C(=O)N[C@@H](CO)C(=O)N[C@@H](CC(=O)O)C(=O)N[C@@H](CO)C(=O)N[C@@H](CCC(=O)O)C(=O)N[C@@H](CCC(=O)O)C(=O)N[C@@H](CCC(=O)O)C(=O)N[C@@H](CCC(N)=O)C(=O)NCC(=O)N[C@@H](CCC(=O)O)C(=O)N[C@@H](CCC(=O)O)C(=O)N[C@@H](Cc1c[nH]c2ccccc12)C(=O)O)[C@@H](C)CC)C(C)C [IE2-SIM],Kd,SMO-1 [1],108 µM
"PLIKQEDIKPEPDFTIQYRNKIIDTAGCIVISDSEEE [synthetic peptide, synthetic peptide harbouring two consensus SUMOylation sites found in the IE2 protein]",SMO-1 conjugation on the substrate,SMO-1 [2],Rapid SMO-1 conjugation was observed on the substrate
B1,cleavage of SMO-1 chains from peptide by SENP2,[3],could efficiently edit the SMO-1 chains from the peptide
same,cleavage of SMO-1 from SMO-1-YFP by SENP2,SMO-1-YFP,could cleave SMO-1 from SMO-1-YFP
